Experimental findings from patent publication US9133178B2, “Alpha-7 nicotinic receptor modulators for the treatment of pain, a psychotic disorder, cognitive impairment or alzheimer'S disease” (Proximagen Limited, priority 2010, dated 2015) are described below.

Where a name gives a salt, the structure may show the parent alone.

In the first test the target is T1, human α7 nAChR (Homo sapiens, UniProt P36544).
T1 construct: expressed in transfected cells; host or cells: GH4C1 (rat pituitary cell line)
T1 sequence (P36544 23-502): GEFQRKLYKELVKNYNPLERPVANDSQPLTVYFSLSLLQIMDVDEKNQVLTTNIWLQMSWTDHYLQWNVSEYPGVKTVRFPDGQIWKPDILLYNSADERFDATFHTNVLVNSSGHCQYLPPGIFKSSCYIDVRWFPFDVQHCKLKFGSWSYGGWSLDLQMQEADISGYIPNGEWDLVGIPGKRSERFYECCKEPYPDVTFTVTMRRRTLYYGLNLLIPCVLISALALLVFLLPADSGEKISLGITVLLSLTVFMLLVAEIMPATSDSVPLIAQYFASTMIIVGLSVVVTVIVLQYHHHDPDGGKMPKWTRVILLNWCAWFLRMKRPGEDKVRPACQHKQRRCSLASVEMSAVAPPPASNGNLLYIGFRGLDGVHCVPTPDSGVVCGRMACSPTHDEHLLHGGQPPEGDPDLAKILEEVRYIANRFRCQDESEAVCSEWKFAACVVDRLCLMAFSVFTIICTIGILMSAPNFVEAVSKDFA
Put plainly: cell-based calcium flux assay (FLIPR) for PAM activity at the α7 nAChR. Particulars: Table 1; potentiation of nicotine-evoked calcium flux, GH4C1 cells stably transfected with human α7 nAChR; read-out: a7 new sm > PXC50 MEAN. As for the experimental part:
The PAM activity of the compounds of the invention at the α7 nAChR may be determined using the following cell-based calcium flux assay which uses a Fluorimetric Image Plate Reader (FLIPR) (see Schroeder et al.; J. Biomolecular Screening, 1(2), p 75-80, 1996).
GH4C1 cell line stably transfected with human α7 nAChR was suspended in a 384 well plate and incubated at 30° C. for 48 h in a 5% carbon dioxide atmosphere. The growth media was removed and the cells washed three times with a solution of Hanks' balanced salt solution (HBSS), 20 mM HEPES and 2.5 mM probenecid leaving 20 μl washing solution in each well. A loading solution (200) containing HBSS, probenecid, 1-4 μM Fluo4 AM (a calcium indicator dye) and pluronic acid was added and the plate incubated for 45 min at 37° C. under an atmosphere free from carbon dioxide. The cells were washed three times leaving 30 μl in each well. The plate containing the cells and calcium indicator dye were then transferred to the FLIPR. The assay was initiated by collecting baseline datapoints at 10 second intervals followed by addition of the test compound in buffer solution (0.33% DMSO) and diluted to a final concentration of 10 μM and serial dilution of the wells, 1:2 or 1:3, gave a low concentration of <1 nM. Following a further 5-10 mins 10 μl of 50 μM nicotine was added and data collected for 2 to 3 mins. Nicotine produced a rapid, transient and reproducible calcium flux which could be potentiated with the positive allosteric modulator test compounds.
For `Cc1cc(-c2cnc(N3C[C@@H](C)O[C@@H](C)C3)nc2-c2cccnc2C(F)(F)F)ccn1` [Example 16, cis-2,6-Dimethyl-4-{5-(2-methyl-4-pyridinyl)-4-[2-(trifluoromethyl)-3-pyridinyl]-2-pyrimidinyl}morpholine hydrochloride], the EC50 is at most 10 µM.
For `Cc1cc(-c2ccc(N3C[C@@H](C)O[C@@H](C)C3)nc2-c2ccoc2C)ccn1` [Example 12, 6-(cis-2,6-dimethyl-4-morpholinyl)-2′-methyl-2-(2-methyl-3-furanyl)-3,4′-bipyridine hydrochloride], the EC50 was at most 3.16 µM.
On to `Cc1cc(-c2cnc(N3C[C@@H](C)O[C@@H](C)C3)nc2CC(C)C)ccn1` [Example 9, cis-2,6-Dimethyl-4-[4-(2-methylpropyl)-5-(2-methyl-4-pyridinyl)-2-pyrimidinyl]morpholine hydrochloride], for which the EC50 was at most 1 µM.
Turning to `Cc1occc1-c1nc(N2CCCCCC2)ncc1-c1ccccn1` [Example 7, 1-[4-(2-Methyl-3-furanyl)-5-(2-Pyridinyl)-2-pyrimidinyl]hexahydro-1H-azepine hydrochloride], the EC50 was at most 10 µM.
As to `Cc1cc(-c2cnc(N3C[C@H](C)O[C@@H](C)C3)nc2-c2ccoc2C)ccn1` (relative stereo) [Example 6, trans-2,6-Dimethyl-4-[4-(2-methyl-3-furanyl)-5-(2-methyl-4-pyridinyl)-2-pyrimidinyl]morpholine hydrochloride], the EC50 was at most 1 µM.
On to `Cc1cc(-c2cnc(N3CCCCC3)nc2-c2ccoc2C)ccn1` [Example 4, 4-(2-Methyl-3-furanyl)-5-(2-methyl-4-pyridinyl)-2-(1-piperidinyl)pyrimidine hydrochloride], for which the EC50 is at most 1 µM.
On the same count and under the same terms, to `Cc1cc(-c2cnc(N3C[C@@H](C)O[C@@H](C)C3)cc2-c2ccoc2C)ccn1` [Example 11, 6-(cis-2,6-dimethyl-4-morpholinyl)-2′-methyl-4-(2-methyl-3-furanyl)-3,4′-bipyridine hydrochloride] belongs at most 3.16 µM.
Turning to `Cc1cc(-c2cnc(N3C[C@@H](C)O[C@@H](C)C3)nc2-c2cc(F)ccc2C#N)ccn1` [Example 18, cis-2-[2-(2,6-Dimethyl-4-morpholinyl)-5-(2-methyl-4-pyridinyl)-4-pyrimidinyl]-4-fluorobenzonitrile hydrochloride], the EC50 is at most 10 µM.
For the compound `Cc1cc(-c2cnc(N3C[C@@H](C)O[C@@H](C)C3)nc2-c2cnc(F)cc2C)ccn1` [Example 17, cis-4-[4-(6-Fluoro-4-methyl-3-pyridinyl)-5-(2-methyl-4-pyridinyl)-2-pyrimidinyl]-2,6-dimethylmorpholine hydrochloride], the EC50 is at most 3.16 µM.
With `Cc1cc(-c2ncc(N3C[C@@H](C)O[C@@H](C)C3)nc2-c2ccoc2C)ccn1` [Example 10, cis-2,6-Dimethyl-4-[6-(2-methyl-3-furanyl)-5-(2-methyl-4-pyridinyl)-2-pyrazinyl]morpholine hydrochloride], the EC50 is at most 3.16 µM.
In the case of `Cc1occc1-c1nc(N2CCCC(C)C2)ncc1-c1ccncc1` (centres unmarked) [Example 1, 4-(2-Methyl-3-furanyl)-2-(3-methyl-1-piperidinyl)-5-(4-pyridinyl)pyrimidine hydrochloride], the EC50 is at most 1 µM.
Take `Cc1cc(-c2cnc(N3C[C@@H](C)O[C@@H](C)C3)nc2-c2ccccc2C)ccn1` [Example 14, cis-2,6-Dimethyl-4-[4-(2-methylphenyl)-5-(2-methyl-4-pyridinyl)-2-pyrimidinyl]morpholine]: the EC50 was at most 3.16 µM.
`Cc1occc1-c1nc(N2CCCC(C)C2)ncc1-c1ccccn1` (centres unmarked) [Example 8, 4-(2-Methyl-3-furanyl)-2-(3-methyl-1-piperidinyl)-5-(2-pyridinyl)pyrimidine hydrochloride]: the EC50 was at most 3.16 µM.
For `Cc1cc(-c2cnc(N3C[C@@H](C)O[C@@H](C)C3)nc2-c2ccoc2C)ccn1` [Example 5, cis-2,6-Dimethyl-4-[4-(2-methyl-3-furanyl)-5-(2-methyl-4-pyridinyl)-2-pyrimidinyl]morpholine hydrochloride], the EC50 was at most 1 µM.
As for `Cc1cc(-c2cnc(N3C[C@@H](C)O[C@@H](C)C3)nc2-c2cccc(C(F)(F)F)c2C#N)ccn1` [Example 19, cis-2-[2-(2,6-dimethyl-4-morpholinyl)-5-(2-methyl-4-pyridinyl)-4-pyrimidinyl]-6-(trifluoromethyl)benzonitrile hydrochloride], the EC50 is at most 1 µM.
`Cc1cnccc1-c1cnc(N2C[C@@H](C)O[C@@H](C)C2)nc1-c1ccoc1C` [Example 15, cis-2,6-dimethyl-4-[4-(2-methyl-3-furanyl)-5-(3-methyl-4-pyridinyl)-2-pyrimidinyl]morpholine hydrochloride]: the EC50 was at most 3.16 µM.
As for `Cc1cc(-c2ccc(N3C[C@@H](C)O[C@@H](C)C3)cc2-c2ccoc2C)ccn1` [Example 13, cis-2,6-Dimethyl-4-[3-(2-methyl-3-furanyl)-4-(2-methyl-4-pyridinyl)phenyl]morpholine], the EC50 is at most 1 µM.
Consider `Cc1cc(-c2cnc(N3CCCC(C)C3)nc2-c2ccoc2C)ccn1` (centres unmarked) [Example 3, 4-(2-Methyl-3-furanyl)-2-(3-methyl-1-piperidinyl)-5-(2-methyl-4-pyridinyl)pyrimidine hydrochloride], for which the EC50 was at most 1 µM.
`Cc1occc1-c1nc(N2CCCC(C)C2)ncc1-c1cccnc1` (centres unmarked) [Example 2, 4-(2-Methyl-3-furanyl)-2-(3-methyl-1-piperidinyl)-5-(3-pyridinyl)pyrimidine hydrochloride]: the EC50 was at most 10 µM.

Staying with this test, now noted: Table 2, commercially available compounds; potentiation of nicotine-evoked calcium flux, GH4C1 cells stably transfected with human α7 nAChR; read-out: a7 new sm > PXC50 MEAN.
With `Cc1occc1-c1nc(N2CCCCCC2)ncc1-c1ccncc1` [ATL 13269690 or ADM 13269690], the EC50 is at most 3.16 µM.
The same measure, in the same setting: as for `Cc1occc1-c1nc(N2CCCCC2)ncc1-c1ccncc1` [ADM 13269676], the figure is at most 1 µM.
For `COc1cc(-c2cnc(N3CCCCC3)nc2-c2ccco2)nc(OC)n1` [ATL 14631888], the EC50 was at most 10 µM.
On the same count and under the same terms, as for `Cc1ccc(-c2nc(N3CCCC3)ncc2-c2cc(C)no2)cn1` [ADM 14220366], the figure is at most 10 µM; as for `Cc1ccc(-c2nc(N3CCCCC3)ncc2-c2cc(C)no2)cn1` [ADM 14220371], at most 1 µM; as for `c1coc(-c2cnc(N3CCSCC3)nc2-c2ccco2)c1` [LMK 13280444], at most 3.16 µM.
For the compound `Cc1occc1-c1nc(N2CCCC2)ncc1-c1ccncc1` [ADM 13269675], the EC50 was at most 3.16 µM.
Consider `Cc1noc(C)c1-c1nc(N2CCCCCC2)ncc1-c1ccncc1` [AOP 14465544], for which the EC50 is at most 3.16 µM.
`Cc1ccc(-c2nc(N3CCCC(C)C3)ncc2-c2cc(C)no2)cn1` (centres unmarked) [ADM 14220368]: the EC50 was at most 1 µM.
`Cc1occc1-c1nc(N2CC(C)OC(C)C2)ncc1-c1ccncc1` (centres unmarked) [ADM 13269721]: the EC50 was at most 1 µM.
`COc1cc(-c2cnc(N3CCCC3)nc2-c2ccco2)nc(OC)n1` [ATL 14631887]: the EC50 is at most 10 µM.
Consider `Cc1occc1-c1nc(N2CCCC(C)C2)ncc1-c1ccncc1` (centres unmarked) [ADM 13269678], for which the EC50 was at most 1 µM.
As for `Cc1cc(-c2cnc(N3CCSCC3)nc2-c2ccc(C)o2)on1` [AEM 14465590], the EC50 is at most 3.16 µM.
Turning to `Cc1noc(C)c1-c1nc(N2CCSCC2)ncc1-c1ccncc1` [AOP 14465529], the EC50 was at most 10 µM.
Consider `CC1CCCN(c2ncc(-c3ccncc3)c(-c3ccco3)n2)C1` (centres unmarked) [LMK 13268083], for which the EC50 is at most 10 µM.
Same read-out and setting: to `Cc1occc1-c1nc(N2CCSCC2)ncc1-c1ccncc1` [ADM 13269686] belongs at most 3.16 µM.
With `c1ccc(-c2nnc(N3CCCC3)nc2-c2ccccc2)cc1` [AO-476/43380313], the EC50 was at most 1 µM.
The same measure, in the same setting: as for `Cc1noc(C)c1-c1nc(N2CCCC(C)C2)ncc1-c1ccncc1` (centres unmarked) [AOP 14465526], the figure is at most 3.16 µM; as for `Cc1cc(-c2cnc(N3CCSCC3)nc2-c2ccc(C)s2)on1` [ADM 14408364], at most 3.16 µM.
Consider `Cc1ccc(-c2nc(N3CCCCC3)ncc2-c2ccncc2)cn1` [AOP 13274014], for which the EC50 was at most 3.16 µM.
For `c1cc(-c2cnc(N3CCCCC3)nc2-c2ccoc2)ccn1` [ADM 14465561], the EC50 is at most 10 µM.
In the case of `Cc1occc1-c1nc(N2CCN(C(=O)c3ccco3)CC2)ncc1-c1ccccn1` [ADM 13270126], the EC50 was at most 10 µM.
Take `c1cc(-c2cnc(N3CCSCC3)nc2-c2ccoc2)ccn1` [ADM 14465558]: the EC50 was at most 1 µM.
On the same count and under the same terms, as for `Cc1ccc(-c2nc(N3CCCC(C)C3)ncc2-c2ccncc2)cn1` (centres unmarked) [AOP 13274016], the figure is at most 1 µM.

The same test, now with this note: further batch (as the HCl salt); read-out: pEC50 (converted).
For `Cc1cc(-c2cnc(N3C[C@@H](C)O[C@@H](C)C3)nc2-c2ccccc2C#N)ccn1`, the EC50 was above 10 µM.

The same test, now with this note: further batch (as the HCl salt); relative to nicotine control.
In the case of `Cc1cc(-c2cnc(N3C[C@@H](C)O[C@@H](C)C3)nc2-c2ccccc2C#N)ccn1`, the “maximum potentiation of the response area relative to nicotine control” value is given as “approximately 1200%”.

Staying with this test, now noted: potentiation of nicotine-evoked calcium flux; read-out: pEC50 (converted).
`Cc1cc(-c2cnc(N3C[C@@H](C)O[C@@H](C)C3)nc2-c2ccccc2C#N)ccn1`: the EC50 is around 2.51 µM.

The test is the same for the next values; noted with them: relative to nicotine control.
`Cc1cc(-c2cnc(N3C[C@@H](C)O[C@@H](C)C3)nc2-c2ccccc2C#N)ccn1`: the “maximum potentiation of the response area relative to nicotine control” value is “approximately 1200%”.
